{"source": "patent US20110237538A1", "about": "“TREATMENT OF LYSOSOMAL STORAGE DISORDERS AND OTHER PROTEOSTATIC DISEASES” (SUMMIT CORPORATION PLC, priority 2008, published 2011)", "key": {"[1]": {"biological_target": "T1, Jack bean α-D-mannosidase (Canavalia ensiformis, UniProt C0HJB3)", "T1 construct": "purchased Sigma M7257", "T1 sequence (C0HJB3 1-981)": "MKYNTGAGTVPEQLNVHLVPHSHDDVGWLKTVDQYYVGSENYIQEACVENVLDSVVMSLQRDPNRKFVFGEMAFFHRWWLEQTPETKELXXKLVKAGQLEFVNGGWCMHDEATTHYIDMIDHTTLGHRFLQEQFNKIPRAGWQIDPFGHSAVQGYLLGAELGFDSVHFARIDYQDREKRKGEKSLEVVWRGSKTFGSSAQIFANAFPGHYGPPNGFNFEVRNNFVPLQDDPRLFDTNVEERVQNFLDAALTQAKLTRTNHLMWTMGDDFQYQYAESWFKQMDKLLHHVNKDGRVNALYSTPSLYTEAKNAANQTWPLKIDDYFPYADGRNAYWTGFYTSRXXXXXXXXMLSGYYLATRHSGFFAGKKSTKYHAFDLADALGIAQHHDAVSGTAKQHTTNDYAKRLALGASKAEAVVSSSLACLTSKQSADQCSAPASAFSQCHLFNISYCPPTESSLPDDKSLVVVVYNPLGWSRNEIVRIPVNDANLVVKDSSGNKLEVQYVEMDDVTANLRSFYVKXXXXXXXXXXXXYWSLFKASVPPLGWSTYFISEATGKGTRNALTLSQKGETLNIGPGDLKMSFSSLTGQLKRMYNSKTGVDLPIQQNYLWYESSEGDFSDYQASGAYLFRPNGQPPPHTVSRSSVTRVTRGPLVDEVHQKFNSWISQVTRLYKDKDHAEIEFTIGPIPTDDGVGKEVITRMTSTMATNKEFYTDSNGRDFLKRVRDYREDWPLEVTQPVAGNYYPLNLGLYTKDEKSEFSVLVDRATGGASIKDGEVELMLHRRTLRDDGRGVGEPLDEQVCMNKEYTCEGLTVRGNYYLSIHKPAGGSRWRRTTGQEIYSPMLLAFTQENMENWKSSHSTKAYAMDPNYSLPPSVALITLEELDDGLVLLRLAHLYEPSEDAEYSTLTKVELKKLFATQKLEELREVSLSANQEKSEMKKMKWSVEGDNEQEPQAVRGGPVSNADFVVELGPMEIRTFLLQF", "experiment": "α-mannosidase activity assay with p-nitrophenyl-α-D-mannopyranoside (Example 1)", "assay_type": "biochemical", "conditions": "Jack Bean α-mannosidase, p-nitrophenyl-α-D-mannopyranoside as the substrate", "protocol": "Solutions of 0.2M Mcllvane buffer at pH 4.5 and 5 mM p-nitrophenyl-α-D-mannopyranoside (Sigma, N2127), dissolved in the buffer, were prepared. A solution of Jack bean α-D-mannosidase enzyme (Sigma, M7257, 22 Units/mg, 6.2 mg/ml.) was also prepared at 0.6 Units/ml in the buffer.\nThe incubation mixture consisted of 10 μl enzyme solution, 10 μl of 1 mg/ml aqueous iminosugar solution and 50 μl of 5 mM substrate made up in buffer at the optimum pH for the enzyme. The reactions were stopped by addition of 70 μl 0.4M glycine (pH 10.4) during the exponential phase of the reaction, which had been determined at the beginning using uninhibited assays in which water replaced inhibitor. Final absorbances were read at 405 nm using a Versamax microplate reader (Molecular Devices). Assays were carried out in triplicate, and the values given are means of the three replicates. Results were expressed as a percentage of uninhibited assays in which water replaced inhibitor."}, "[2]": {"test_system": "alpha-galactosidase", "experiment": "enzyme enhancement assay, cell based screening for chaperones (Fabry lymphoblasts GM04391)", "design": "species or system human", "conditions": "Fabry patient lymphoblasts (GM04391), dosed 0.3-100 μM, 72 hr; relative to vehicle"}, "[3]": {"test_system": "beta-glucocerebrosidase (N370S GM01873, L444P GM08752)", "experiment": "enzyme enhancement assay, cell based screening for chaperones (Gaucher lymphoblasts)", "design": "species or system human", "conditions": "Gaucher patient lymphoblasts, dosed 0.3-100 μM, 72 hr; relative to vehicle, normalised against total protein"}, "[4]": {"biological_target": "T2, α-D-mannosidase (Jack bean) (Canavalia ensiformis, UniProt C0HJB3)", "T2 construct": "purchased Sigma Aldrich Chemicals Limited", "T2 sequence (C0HJB3 1-981)": "T1 sequence (C0HJB3 1-981)", "experiment": "glycosidase assay with p-nitrophenyl substrates (Example 2)", "assay_type": "biochemical", "conditions": "10 μl of 5 mM iminosugar solution in 70 μl incubation mixture; 20° C.", "protocol": "(§1) The assays were conducted as described by Watson et al. 1997, Phytochemistry 46: 255-259 using p-nitrophenyl-substrates. Assays were carried out in microtitre plates. Enzymes were assayed in 0.1M citric acid/0.2M di-sodium hydrogen phosphate (Mcllvaine) buffers at the optimum pH for the enzyme. All assays were carried out at 20° C. All enzymes and substrates were purchased from Sigma Aldrich Chemicals Limited. The incubation mixture consisted of 10 μl of enzyme solution, 10 μl of the iminosugars solution (made up in deionised water at 5 mM) and 50 μl of the appropriate 5 mM p-nitrophenyl substrate made up in McIlvaine buffer at the optimum pH for the enzyme. The reactions were stopped with 0.4M glycine (pH 10.4) during the exponential phase of the reaction, which was determined at the beginning of the assay using blanks with water, which were incubated for a range of time periods to measure the reaction rate using 5 mM substrate solution. Absorbances were read at 405 nm. Water was substituted for the inhibitors in the blanks.\n(§2) The glycosidases used were α-D-glucosidase (yeast), α-D-glucosidase (Bacillus sterothermophilus), α-D-glucosidase (rice), amyloglucosidase (Aspergillus niger), β-D-glucosidase (almond), α-D-galactosidase (green coffee beans), β-D-galactosidase (bovine liver), α-L-fucosidase (bovine kidney), α-D-mannosidase (Jack bean), β-D-mannosidase (Cellullomonas fimi), Naringinase (Penicillium decumbens), N-acetyl-β-D-glucosaminidase (Bovine kidney), N-acetyl-β-D-glucosaminidase (Aspergillus oryzae) and N-acetyl-β-D-glucosaminidase (Jack bean)"}, "[5]": {"test_system": "α-D-glucosidase (Bacillus sterothermophilus)", "experiment": "glycosidase assay with p-nitrophenyl substrates (Example 2)", "assay_type": "biochemical", "conditions": "10 μl of 5 mM iminosugar solution in 70 μl incubation mixture; 20° C.", "protocol": "as §1, §2"}, "[6]": {"test_system": "N-acetyl-β-D-glucosaminidase (Bovine kidney)", "experiment": "glycosidase assay with p-nitrophenyl substrates (Example 2)", "assay_type": "biochemical", "conditions": "10 μl of 5 mM iminosugar solution in 70 μl incubation mixture; 20° C.", "protocol": "as §1, §2"}, "[7]": {"biological_target": "T3, α-D-galactosidase (green coffee beans) (Coffea arabica, UniProt Q42656)", "T3 construct": "purchased Sigma Aldrich Chemicals Limited", "T3 sequence (Q42656 16-378)": "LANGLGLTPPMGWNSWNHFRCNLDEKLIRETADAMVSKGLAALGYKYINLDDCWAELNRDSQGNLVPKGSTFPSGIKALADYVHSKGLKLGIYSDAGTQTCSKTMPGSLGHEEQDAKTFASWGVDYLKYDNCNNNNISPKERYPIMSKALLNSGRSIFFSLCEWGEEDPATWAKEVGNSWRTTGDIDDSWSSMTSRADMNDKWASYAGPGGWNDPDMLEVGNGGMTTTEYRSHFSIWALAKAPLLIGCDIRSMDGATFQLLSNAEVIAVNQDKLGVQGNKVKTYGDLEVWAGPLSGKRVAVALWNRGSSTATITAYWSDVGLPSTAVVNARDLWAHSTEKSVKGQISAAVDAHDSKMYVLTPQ", "experiment": "glycosidase assay with p-nitrophenyl substrates (Example 2)", "assay_type": "biochemical", "conditions": "10 μl of 5 mM iminosugar solution in 70 μl incubation mixture; 20° C.; read-out: Promotion of glycosidase activity: α-D-galactosidase (Green coffee bean)", "protocol": "as §1, §2"}, "[8]": {"biological_target": "T4, wild type (wt) beta-glucocerebrosidase (Homo sapiens, UniProt P04062)", "T4 construct": "The lysates were used as a source for wild type (wt) beta-glucocerebrosidase; endogenous in cells; host or cells: HL60 (ECACC No. 98070106) lysate", "T4 sequence (P04062 40-536)": "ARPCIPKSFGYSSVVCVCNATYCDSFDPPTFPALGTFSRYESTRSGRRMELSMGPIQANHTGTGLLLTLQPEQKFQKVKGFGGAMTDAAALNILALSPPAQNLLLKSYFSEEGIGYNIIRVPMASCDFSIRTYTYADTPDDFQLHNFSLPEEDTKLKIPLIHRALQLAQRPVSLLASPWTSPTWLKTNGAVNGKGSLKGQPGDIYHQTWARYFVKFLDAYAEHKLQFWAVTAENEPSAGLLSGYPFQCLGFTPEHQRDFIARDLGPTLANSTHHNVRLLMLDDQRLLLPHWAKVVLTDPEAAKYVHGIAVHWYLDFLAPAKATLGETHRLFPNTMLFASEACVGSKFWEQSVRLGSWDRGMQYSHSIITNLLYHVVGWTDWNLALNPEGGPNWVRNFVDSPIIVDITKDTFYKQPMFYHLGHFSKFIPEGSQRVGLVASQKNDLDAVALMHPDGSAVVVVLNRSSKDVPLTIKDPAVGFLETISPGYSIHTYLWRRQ", "experiment": "beta-glucocerebrosidase activity assay in HL60 lysate (4MU-β-D-glc)", "assay_type": "biochemical", "conditions": "at a concentration of 100 μM, 0.5 mM 4MU-β-D-glc"}}, "data": [{"smiles": "C[C@@]1(O)CN[C@H](CO)[C@@H](O)[C@@H]1O", "note": "[Compound 201, (2R,3R,4S,5R)-2-(hydroxymethyl)-5-methylpiperidine-3,4,5-triol]", "values": [{"measurement": "promotion of the mannosidase activity (in words)", "setting": "[1]", "result": "promotion of the mannosidase activity"}, {"measurement": "increased enzyme activity (alpha-galactosidase)", "setting": "[2]", "result": "> 201", "unit": "%"}, {"measurement": "increased enzyme activity (beta-glucocerebrosidase)", "setting": "[3]", "result": "> 201", "unit": "%"}]}, {"smiles": "CCCC[N@@+]1([O-])C[C@@H](O)[C@H](O)[C@@H]1CO", "note": "[Compound 178, (1R,2S,3R,4R)-1-butyl-3,4-dihydroxy-2-(hydroxymethyl)pyrrolidine 1-oxide]", "values": [{"measurement": "Promotion of glycosidase activity: α-D-mannosidase (Jack bean)", "setting": "[4]", "result": "35 % increase in absorbance compared to the water controls"}, {"measurement": "Promotion of glycosidase activity: α-D-glucosidase (Bacillus sterothermophilus)", "setting": "[5]", "result": "161 % increase in absorbance compared to the water controls"}, {"measurement": "Promotion of glycosidase activity: N-acetyl-β-D-gluc (Bovine kidney)", "setting": "[6]", "result": "85 % increase in absorbance compared to the water controls"}]}, {"smiles": "CCOP(=O)(CCCN1C[C@@H](N=[N+]=[N-])C[C@H]1CO)OCC", "note": "[Compound 291, diethyl 3-((2S,4S)-4-azido-2-(hydroxymethyl)pyrrolidin-1-yl)propylphosphonate]", "values": [{"measurement": "Promotion of glycosidase activity: α-D-mannosidase (Jack bean)", "setting": "[4]", "result": "43 % increase in absorbance compared to the water controls"}, {"measurement": "Promotion of glycosidase activity: α-D-glucosidase (Bacillus sterothermophilus)", "setting": "[5]", "result": "49 % increase in absorbance compared to the water controls"}]}, {"smiles": "O=C1N[C@H]([C@H](O)CO)[C@H](OCc2ccccc2)[C@@H]1OCc1ccccc1", "note": "[Compound 242, (3S,4S,5R)-3,4-bis(benzyloxy)-5-((S)-1,2-dihydroxyethyl)pyrrolidin-2-one]", "values": [{"measurement": "Promotion of glycosidase activity: α-D-glucosidase (Bacillus sterothermophilus)", "setting": "[5]", "result": "65 % increase in absorbance compared to the water controls"}, {"measurement": "activation at 714 µM", "setting": "[7]", "result": 38, "unit": "%"}, {"measurement": "Promotion of glycosidase activity: N-acetyl-β-D-gluc (Bovine kidney)", "setting": "[6]", "result": "59 % increase in absorbance compared to the water controls"}]}, {"smiles": "O[C@@H]1C[C@H]2CC[C@](O)(N2)[C@H]1O", "note": "[Compound 20, (1R,2S,3R,5R)-8-azabicyclo[3.2.1]octane-1,2,3-triol]", "values": [{"measurement": "increased enzyme activity (alpha-galactosidase)", "setting": "[2]", "result": "> 20", "unit": "%"}, {"measurement": "increased enzyme activity (beta-glucocerebrosidase)", "setting": "[3]", "result": "> 20", "unit": "%"}, {"measurement": "inhibition at 100 µM", "setting": "[8]", "result": "> 50", "unit": "%"}]}, {"smiles": "CCCCCCCCCN1C[C@@H](O)[C@@H](O)[C@@H]1[C@@H](O)CO", "note": "[Compound 316, (2S,3S,4R)-2-((R)-1,2-dihydroxyethyl)-1-nonylpyrrolidine-3,4-diol]", "values": [{"measurement": "Promotion of glycosidase activity: α-D-glucosidase (Bacillus sterothermophilus)", "setting": "[5]", "result": "167 % increase in absorbance compared to the water controls"}, {"measurement": "activation at 714 µM", "setting": "[7]", "result": 42, "unit": "%"}, {"measurement": "Promotion of glycosidase activity: N-acetyl-β-D-gluc (Bovine kidney)", "setting": "[6]", "result": "94 % increase in absorbance compared to the water controls"}]}, {"smiles": "CCCC[N+]1([O-])C[C@@H](O)[C@H](O)[C@H]1CO", "note": "(stereo partly drawn) [Compound 95, (2R,3R,4R)-1-butyl-3,4-dihydroxy-2-(hydroxymethyl)pyrrolidine 1-oxide]", "values": [{"measurement": "Promotion of glycosidase activity: α-D-mannosidase (Jack bean)", "setting": "[4]", "result": "86 % increase in absorbance compared to the water controls"}, {"measurement": "Promotion of glycosidase activity: α-D-glucosidase (Bacillus sterothermophilus)", "setting": "[5]", "result": "53 % increase in absorbance compared to the water controls"}, {"measurement": "activation at 714 µM", "setting": "[7]", "result": 35, "unit": "%"}, {"measurement": "Promotion of glycosidase activity: N-acetyl-β-D-gluc (Bovine kidney)", "setting": "[6]", "result": "46 % increase in absorbance compared to the water controls"}]}, {"smiles": "CC1(C)O[C@H]2[C@H](O)[C@@H](CO[Si](C)(C)C(C)(C)C)NC(=O)[C@H]2O1", "note": "[Compound 238, (3aS,6R,7R,7aS)-6-((tert-butyldimethylsilyloxy)methyl)-7-hydroxy-2,2-dimethyltetrahydro-[1,3]dioxolo[4,5-c]pyridin-4(3aH)-one]", "values": [{"measurement": "Promotion of glycosidase activity: α-D-glucosidase (Bacillus sterothermophilus)", "setting": "[5]", "result": "127 % increase in absorbance compared to the water controls"}, {"measurement": "activation at 714 µM", "setting": "[7]", "result": 30, "unit": "%"}, {"measurement": "Promotion of glycosidase activity: N-acetyl-β-D-gluc (Bovine kidney)", "setting": "[6]", "result": "31 % increase in absorbance compared to the water controls"}]}, {"smiles": "CCCC[N@+]1([O-])C[C@H](O)[C@@H](O)[C@H]1CO", "note": "[Compound 165, (1S,2R,3S,4S)-1-butyl-3,4-dihydroxy-2-(hydroxymethyl)pyrrolidine 1-oxide]", "values": [{"measurement": "Promotion of glycosidase activity: α-D-mannosidase (Jack bean)", "setting": "[4]", "result": "43 % increase in absorbance compared to the water controls"}, {"measurement": "Promotion of glycosidase activity: α-D-glucosidase (Bacillus sterothermophilus)", "setting": "[5]", "result": "72 % increase in absorbance compared to the water controls"}, {"measurement": "Promotion of glycosidase activity: N-acetyl-β-D-gluc (Bovine kidney)", "setting": "[6]", "result": "76 % increase in absorbance compared to the water controls"}]}]}
